Our source for the Ki values is BindingDB's records for PubMed 34286973 (University of Chinese Academy of Sciences, 2021).

The target of this assay is E3 ubiquitin-protein ligase Mdm2 (Homo sapiens, UniProt Q00987). The assay can be described thus: Binding affinity to human MDM2 assessed as dissociation constant.
Sequence of E3 ubiquitin-protein ligase Mdm2 (Q00987 whole entry): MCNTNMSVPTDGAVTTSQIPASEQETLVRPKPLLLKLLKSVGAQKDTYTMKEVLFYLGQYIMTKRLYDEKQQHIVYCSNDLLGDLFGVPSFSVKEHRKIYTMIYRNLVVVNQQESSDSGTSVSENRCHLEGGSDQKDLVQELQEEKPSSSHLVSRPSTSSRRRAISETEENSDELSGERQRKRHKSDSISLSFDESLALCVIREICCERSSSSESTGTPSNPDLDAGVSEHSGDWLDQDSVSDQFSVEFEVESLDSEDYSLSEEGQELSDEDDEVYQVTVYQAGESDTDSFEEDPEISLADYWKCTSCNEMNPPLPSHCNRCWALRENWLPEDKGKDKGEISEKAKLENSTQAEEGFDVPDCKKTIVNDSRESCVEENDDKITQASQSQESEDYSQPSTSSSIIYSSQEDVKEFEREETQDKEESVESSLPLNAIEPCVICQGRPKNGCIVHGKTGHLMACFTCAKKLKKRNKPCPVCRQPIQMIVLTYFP

Take `O=C(CN(Cc1ccc(Cl)cc1)C(=O)c1cc2ccccc2[nH]1)NC1CCCCC1`: the Ki amounted to 54 µM.
